# Measured values reported in ChEMBL document CHEMBL1201862, “PubChem BioAssay data set” (2004).
# Calls of active or inactive are those of the source.
# How the values were obtained:
# [1] = cytotoxicity toward NIH3T3 fibroblasts, dose response, counter-screen, cell-based, ATP luminescence, mouse fibroblasts (AID 2010); assay type: functional;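 further: cells exposed to compound for about 90 hours before reading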
# [2] = inhibitors of intracellular T. cruzi replication, confirmation, NIH3T3 host cells, beta-gal luminescence (AID 2044); assay type: functional, cell-based;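 further: intracellular parasites grown in NIH/3T3 mouse fibroblasts as host cells; luminescent beta-galactosidase reporter signal from transgenic T. cruzi replicating inside host cells; inhibitors lower the luminescence signal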
# [3] = target: T1, Heat shock factor protein 1 (Mus musculus, UniProt P38532); experiment: inhibition of MG132-induced HSE-luciferase signal, confirmation, cell-based, NIH3T3, luminescence, dose retest (AID 2382); assay type: functional;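 further: NIH3T3 fibroblasts with HSF1-driven luciferase reporter stressed by proteasome inhibitor MG132; luminescence from HSF1-driven luciferase expression after 8 hours of MG132 stress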
# T1 sequence (P38532 whole entry): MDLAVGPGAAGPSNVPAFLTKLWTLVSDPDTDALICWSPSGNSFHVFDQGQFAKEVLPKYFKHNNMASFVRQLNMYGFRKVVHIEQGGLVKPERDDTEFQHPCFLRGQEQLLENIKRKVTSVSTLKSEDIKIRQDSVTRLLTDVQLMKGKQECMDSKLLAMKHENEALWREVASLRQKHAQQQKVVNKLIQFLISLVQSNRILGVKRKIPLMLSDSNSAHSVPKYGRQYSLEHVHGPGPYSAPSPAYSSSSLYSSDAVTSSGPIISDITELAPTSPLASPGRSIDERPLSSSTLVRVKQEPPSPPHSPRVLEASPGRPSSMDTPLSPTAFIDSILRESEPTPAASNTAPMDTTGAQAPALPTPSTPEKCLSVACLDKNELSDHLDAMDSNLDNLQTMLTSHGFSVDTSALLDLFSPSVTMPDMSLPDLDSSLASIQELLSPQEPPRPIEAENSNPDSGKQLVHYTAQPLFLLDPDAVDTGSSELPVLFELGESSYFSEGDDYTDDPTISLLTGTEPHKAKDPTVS
# Cytochrome P450 2C19 = Cytochrome P450 2C19 (Homo sapiens, UniProt P33261); experiment: Cytochrome panel assay with activity outcomes. Panel member name: p450-cyp2c19 Compounds with AC50 equal or less than 10 uM are considered active; assay type: functional
# [4] = tested on: Streptococcus sp. 'group A'; experiment: growth inhibition of control SK(-) GAS strain, dose response, counter-screen for streptokinase expression inhibitor project, luminescence, kanamycin, BacTiterGlo, confirmation (AID 1900); assay type: functional, organism-based
# Streptococcus = experiment: Group A Streptococcus viability loss, dose response, counter-screen for streptokinase expression inhibitor project, luminescence, BacTiterGlo (AID 1915); assay type: functional, organism-based;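 further: potency for reduction of bacterial viability or growth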
# [5] = target: FAD-linked sulfhydryl oxidase ALR (Homo sapiens, UniProt P55789); experiment: inhibitors of human ALR sulfhydryl oxidase, dose response, biochemical, H2O2 detection, luminescence, cherry-pick (AID 493248)
# INS1 = experiment: beta cell apoptosis inhibitors, cytokine rescue, dose response, luminescence, retest (AID 449756); assay type: functional, cell-based; settings: Rattus norvegicus;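 further: cell death triggered by IL-1 beta plus TNF-alpha plus IFN-gamma mixture; protective hits raise ATP signal compared with cytokine alone wells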
# [6] = inhibitors of SNCA 5'UTR-driven reporter translation, confirmation, H4 neuroglioma cells, luminescence (AID 1988); assay type: functional, cell-based
# [7] = Luminescence Cell-Based Dose Response HTS to Identify Inhibitors of 5'UTR Stem-Loop Driven Prion Protein mRNA Translation in H4 Neuroglioblastoma Cells. [Related pubchem assays: 1827 (Project Summary), 1813 (Primary HTS)]; assay type: functional
# [8] = inhibitors of firefly luciferase expression or activity, dose response, H4 neuroglioma cells, luminescence (AID 1990); assay type: functional, cell-based
# [9] = NIH-3T3 fibroblast cytotoxicity, dose response, cytotoxicity control, cell-based, fluorescence, Alamar Blue, secondary assay (AID 2327); assay type: functional;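 further: NIH-3T3 mouse fibroblasts cultured with fluconazole at 8 µg/mL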
# Sequence of Cytochrome P450 2C19 (P33261 whole entry): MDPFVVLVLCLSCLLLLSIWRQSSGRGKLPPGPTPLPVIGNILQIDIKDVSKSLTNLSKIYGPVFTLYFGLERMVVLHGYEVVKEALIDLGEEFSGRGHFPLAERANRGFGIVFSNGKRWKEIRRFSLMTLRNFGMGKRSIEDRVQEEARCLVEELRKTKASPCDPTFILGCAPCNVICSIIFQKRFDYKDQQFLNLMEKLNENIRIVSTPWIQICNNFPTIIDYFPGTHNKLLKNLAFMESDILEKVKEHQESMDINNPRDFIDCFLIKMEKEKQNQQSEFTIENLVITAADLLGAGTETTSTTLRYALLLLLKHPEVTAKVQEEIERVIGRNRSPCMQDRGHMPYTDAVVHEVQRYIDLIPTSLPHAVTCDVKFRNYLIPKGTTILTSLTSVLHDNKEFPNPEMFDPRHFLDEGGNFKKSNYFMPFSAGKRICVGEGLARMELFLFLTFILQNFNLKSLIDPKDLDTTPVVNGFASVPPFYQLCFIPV
# Sequence of FAD-linked sulfhydryl oxidase ALR (P55789 whole entry): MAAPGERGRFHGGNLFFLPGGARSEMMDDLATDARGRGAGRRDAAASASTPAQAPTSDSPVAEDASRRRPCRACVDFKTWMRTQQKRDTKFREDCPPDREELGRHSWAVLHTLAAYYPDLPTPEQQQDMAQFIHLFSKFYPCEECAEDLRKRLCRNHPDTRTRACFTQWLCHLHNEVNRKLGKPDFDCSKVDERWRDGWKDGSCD
compound,measurement,setting,value
O=C(CSc1oc(-c2cccs2)nc1S(=O)(=O)c1ccccc1)NC1CCCCC1,EC50,[1],> 60 µM (inconclusive)
same,EC50,[2],1.13 µM (active)
CCOC(=O)N1CCN(c2nc(C)c3c(n2)CCCC3=O)CC1,EC50,[3],> 195 µM (not active)
COc1ccc(CNC(=O)c2ccc(CS(=O)(=O)c3ccc(Br)cc3)o2)cc1,EC50,[3],> 195 µM (not active)
c1ccc(-n2ncc3c(NCCCN4CCOCC4)ncnc32)cc1,AC50,Cytochrome P450 2C19; read-out: AC50,15.8 µM (inconclusive)
CCC1=NN2C(=N)/C(=C\c3cccn3-c3ccc(C)c(C)c3)C(=O)N=C2S1,EC50,[4],3.34 µM (active)
same,EC50,Streptococcus,6.01 µM (active)
COc1cc(/C=C2/C(=O)ON=C2C)cc(Cl)c1O,AC50,[5],16 µM (active)
CS(=O)(=O)Nc1nc2ccccc2[nH]1,EC50,[3],> 195 µM (not active)
CC1=NN(c2ccccc2)C(=O)C1/C=C1/C(=O)NC(=O)N(c2cc(C)cc(C)c2)C1=O (stereo not given),AC50,[5],1.76 µM (active)
COc1ccc(CNC(=O)OCCN2CCN(S(=O)(=O)c3ccc(C)cc3)CCC2=O)cc1,EC50,[3],> 195 µM (not active)
COc1ccc(CCN(C)CCC(=O)Nc2ccc(C)cc2)cc1OC,EC50,[1],> 60 µM (not active)
same,EC50,[2],0.227 µM (active)
CCc1ccc(C(=O)NNc2cc(Cl)ccc2Cl)cc1,AC50,INS1,6.64 µM (active)
COc1ccccc1N1CCN(C(S)=Nc2ccc(F)cc2)CC1,EC50,[3],54.6 µM (active)
CCN(CC)S(=O)(=O)c1cc(C)ccc1N=C(S)Nc1cccnc1,AC50,INS1,43.2 µM (active)
CCN(CC)c1ccc(NC(=O)C2CC3CCC2C3)cc1 (stereo not given),AC50,[5],0.431 µM (active)
CCN(CCCNS(=O)(=O)c1ccc2c(c1)CCN2C(C)=O)c1cccc(C)c1,AC50,[5],2.81 µM (active)
Cc1ccc(S(=O)(=O)CCC(=O)Nc2ccc(Br)cc2)cc1,EC50,[3],> 195 µM (not active)
O=C(NCC(c1ccco1)N1CCc2ccccc21)c1ccccc1F (stereo not given),AC50,[5],1.67 µM (active)
Cc1ccc(NC(S)=NC2CC3CCC(C2)N3Cc2ccco2)cc1C (stereo not given),EC50,[3],> 195 µM (not active)
O=C(CCn1c(=S)oc2ccccc21)NC1CCCCCC1,EC50,[3],> 195 µM (not active)
O=C(NCc1ccc(C(=O)O)cc1)OCc1ccccc1,EC50,[3],> 195 µM (not active)
COc1ccc(Nc2ncnc3sc(-c4ccccc4)cc23)cc1,EC50,[3],> 195 µM (not active)
Cc1ccc(C(=O)N(Cc2cccnc2)Cc2cc3cc(C)ccc3n3nnnc23)cc1,EC50,[1],> 60 µM (not active)
same,EC50,[2],1.29 µM (active)
Brc1ccc2c(c1)[C@H]1OCC[C@H]1[C@@H](c1cccs1)N2,EC50,[6],13.2 µM (active)
same,EC50,[7],17.2 µM (active)
same,EC50,[8],> 60 µM (not active)
COc1ccccc1NS(=O)(=O)c1cccc(NC(=O)c2[nH]c(C)c(C(C)=O)c2C)c1,AC50,INS1,31.1 µM (active)
Cc1cccc(C(=O)NC(=S)N2CCN(c3ccc([N+](=O)[O-])cc3)CC2)c1,EC50,[3],> 195 µM (not active)
CC(=O)Nc1ccc2c(c1)OCCO2,AC50,Cytochrome P450 2C19; read-out: AC50,17.8 µM (inconclusive)
CCOC(=O)c1cc(-c2ccccc2)sc1NC(=O)CN1C(=O)NC(CC)(c2ccccc2)C1=O (stereo not given),EC50,[1],> 60 µM (inconclusive)
same,EC50,[2],2.17 µM (active)
COc1ccc(/C=C2\SC(=S)N(CCCC(=O)N3CCN(C)CC3)C2=O)cc1,EC50,[1],8.7 µM (active)
same,EC50,[2],1.06 µM (active)
Cc1ccc(S(=O)(=O)CC(=O)Nc2ccc(S(=O)(=O)Nc3onc(C)c3C)cc2)cc1,EC50,[3],> 195 µM (not active)
COc1ccccc1C(=O)NCCn1cc(SCC(=O)Nc2cc(C)on2)c2ccccc21,EC50,[6],> 120 µM (not active)
same,EC50,[7],> 120 µM (not active)
same,EC50,[8],16.2 µM (active)
C=CCn1c(S)nnc1-c1cccn(Cc2ccccc2)c1=O,EC50,[6],> 120 µM (not active)
same,EC50,[7],27.4 µM (active)
same,AC50,Cytochrome P450 2C19; read-out: AC50,25.1 µM (inconclusive)
same,EC50,[8],> 120 µM (not active)
CN1C2CCC1CC(OC(=O)c1ccc(Cl)cc1)C2 (stereo not given),AC50,Cytochrome P450 2C19; read-out: AC50,5.62 µM (inconclusive)
O=C(NCc1ccco1)c1ccccc1NS(=O)(=O)c1ccc(Cl)s1,AC50,[5],2.1 µM (active)
O=C(Cn1cc(C(=O)c2ccco2)c2ccccc21)NC1CCCCC1,EC50,[3],> 195 µM (not active)
Nc1ccc(Cl)c(S(=O)(=O)Nc2ccc(Cl)cc2)c1,EC50,[1],> 60 µM (not active)
same,EC50,[2],39.7 µM (active)
Cc1ccc(-c2nc(-c3cccnc3)sc2CC(=O)O)cc1,AC50,[5],3.45 µM (active)
Oc1[nH]c2ccc(Br)cc2c1N=Nc1ccc(C(F)(F)F)cn1,EC50,[1],> 60 µM (not active)
same,EC50,[2],2.33 µM (active)
COc1cc(OC)cc(-c2cc(N3C(=O)Nc4ccccc4N3O)[nH]n2)c1,EC50,[3],73.7 µM (active)
O=C(Nc1ccc(-c2nc3ccccc3s2)cc1)C1=COCCO1,EC50,[6],2.95 µM (active)
same,EC50,[7],5.8 µM (active)
COC(=O)C1=CN(Cc2ccc(OC)c(OC)c2)C=C(C(=O)OC)C1c1cccc(OC)c1OC,EC50,[1],> 60 µM (not active)
same,EC50,[2],0.384 µM (active)
COc1c(Cl)cc(Cl)cc1CNCCNCC(C)O (stereo not given),AC50,Cytochrome P450 2C19; read-out: AC50,14.1 µM (inconclusive)
O=C(c1cc([N+](=O)[O-])ccc1N1CCCCC1)N1CCc2ccccc21,EC50,[6],10.9 µM (active)
same,EC50,[7],> 120 µM (not active)
same,EC50,[8],> 120 µM (not active)
O=C(CC(Sc1ccc(Br)cc1)C(=O)O)c1ccc(F)cc1 (stereo not given),EC50,[1],> 30 µM (not active)
same,EC50,[2],2.1 µM (active)
CC(=O)N1CCOCCOCCN(C(C)=O)CCOCCOCC1,EC50,[9],> 150 µM (inconclusive)
O=C(CN1CCN(S(=O)(=O)c2ccc3ccccc3c2)CC1)NC(=O)NC1CCCCC1,EC50,[6],46.8 µM (active)
same,EC50,[7],> 120 µM (not active)
same,EC50,[8],13 µM (active)
Cc1cccc2cc(CN(Cc3cccs3)Cc3nnnn3Cc3ccccc3)c(O)nc12,EC50,[1],> 30 µM (not active)
same,EC50,[2],2.68 µM (active)
C1=C(c2ccccc2)CCN(c2[nH]cnc3ncnc2-3)C1,EC50,[3],> 195 µM (not active)
Cc1ccc2nc(Cl)c(-c3ccccc3)cc2c1,EC50,[6],> 120 µM (not active)
same,EC50,[7],> 120 µM (not active)
same,EC50,[8],> 120 µM (not active)
CCc1ccc(-[n+]2cc(-c3ccc(F)cc3)n3c2SCCC3)cc1,AC50,INS1,0.429 µM (active)
Cn1c(=O)[nH]c(=O)c2c1nc(CN1CCOCC1)n2CCCO,AC50,Cytochrome P450 2C19,inconclusive
Cc1cc(C(=O)N2CCCC(Nc3ccc(C(C)C)cc3)C2)nn1C (stereo not given),AC50,[5],6.69 µM (active)
Cc1c(Br)cnn1C(C)C(=O)N1CCN(c2ccc(F)cc2)CC1 (stereo not given),AC50,[5],0.578 µM (active)
c1ccc(CNc2ncnc3sc4c(c23)CCCC4)nc1,AC50,[5],37.2 µM (active)
Cc1cccc(N2CCN(C(=O)NC3CCCCC3)CC2C)c1 (stereo not given),AC50,[5],6.6 µM (active)
C/C(=N\Nc1ccc(Cl)c(C(=O)O)c1)c1cc2ccccc2o1,AC50,[5],0.138 µM (active)
C/C(=N\Nc1nc(C)cc(-c2ccccc2)n1)c1ccc(O)cc1,AC50,INS1,0.993 µM (active)
O=C(N/N=C/c1ccccc1F)NC12CC3CC(CC(C3)C1)C2,EC50,[1],> 30 µM (not active)
same,EC50,[2],2.78 µM (active)
CC(=O)O[C@H]1CC[C@]2(C)[C@H]3CC=C4[C@@H]5[C@@H](C)[C@H](C)CC[C@]5(C(=O)O)CC[C@@]4(C)[C@]3(C)CC[C@H]2C1(C)C [O-ACETYLURSOLIC ACID],EC50,[4],2.11 µM (active)
same,EC50,Streptococcus,3.26 µM (active)
